Paper PMC3844262 (Journal of immunology (Baltimore, Md. : 1950), 2013)

Columns and labels:
[1] = tested on: CD8+ T cells from acute day 8 LCMV-infected mice; format: cell-based, C57BL/6 (B6) mice
[2] = tested on: GP34-A11R cross-reactive T cell lines (TCL #1, #3, #7); format: cell-based, C57BL/6 (B6) mice
H-2K^b = H-2K^b (Mus musculus, UniProt P01901); format: binding, murine
Sequence of H-2K^b (P01901 whole entry, looked up): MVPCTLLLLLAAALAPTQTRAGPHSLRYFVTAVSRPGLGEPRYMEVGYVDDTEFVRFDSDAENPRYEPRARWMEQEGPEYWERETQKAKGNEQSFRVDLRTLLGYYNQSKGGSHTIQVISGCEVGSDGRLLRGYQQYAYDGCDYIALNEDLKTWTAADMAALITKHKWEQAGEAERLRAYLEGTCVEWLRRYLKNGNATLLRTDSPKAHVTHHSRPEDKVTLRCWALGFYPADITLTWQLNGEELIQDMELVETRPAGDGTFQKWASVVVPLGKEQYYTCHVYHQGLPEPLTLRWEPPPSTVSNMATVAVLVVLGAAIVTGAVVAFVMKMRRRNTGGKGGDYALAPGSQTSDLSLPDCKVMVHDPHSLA

Sequence | IFNγ production ex vivo, acute LCMV-infected mice (OVA hybrid experiment) [1] | CD8+ T cells responding (IFNγ), TCL #7 [2] | Tm of K^b-peptide complex (H-2K^b) | IFNγ response, % of total CD8+ T cells [1]
SIINFAAL [OVA-AA] | not observed | not cross-reactive |  | 
SIINFEKL [OVA] |  | does not cross-react | 51.5 °C | 
SIYRYYGL |  |  |  | not observed
